Experiments:
[1] = system: db/db mice; experiment: Reduction of fasting blood glucose in db/db mice; type: in vivo; details: intravenous; for blood glucose at 4 and 8 hours post treatment: food access after 4 hours
Protocol: Synthetic GLP-1 peptide and recombinant GLP-1 Surrobody fusions were evaluated for their ability to lower plasma glucose in db/db mice. To reduce the effects of in vivo DPPIV proteolysis during the time course of the study GLP-1 both synthetic and recombinant GLP-1 functionally null Surrobodies used a GLP-1 variant containing a serine substitution for alanine at position 8 that reduces DPPIV inactivation. 8 db/db mice were used per group: Control SgG (3 mg/kg) (functionally null SgG that lacks the GLP-1 conjugate); GLP-1 peptide (0.8 mg/kg); GLP-1 SgG (1 mg/kg); and GLP-1 (3 mg/kg). Essentially db/db mice were matched by weight and relative blood glucose levels. Next, the subjects were injected intravenously with test article and isolated with access to water, but not food. Glucose levels were monitored by handheld glucometer after 1 hour and 4 hours. After 4 hours the mice were allowed free access to both food and water. An additional reading was made at 8 hours following drug administration.

[2] = target: Dipeptidyl protease IV (DPP-IV) (Homo sapiens, UniProt P27487); details: cited from earlier work
Chain of Dipeptidyl protease IV (DPP-IV) (P27487 whole entry): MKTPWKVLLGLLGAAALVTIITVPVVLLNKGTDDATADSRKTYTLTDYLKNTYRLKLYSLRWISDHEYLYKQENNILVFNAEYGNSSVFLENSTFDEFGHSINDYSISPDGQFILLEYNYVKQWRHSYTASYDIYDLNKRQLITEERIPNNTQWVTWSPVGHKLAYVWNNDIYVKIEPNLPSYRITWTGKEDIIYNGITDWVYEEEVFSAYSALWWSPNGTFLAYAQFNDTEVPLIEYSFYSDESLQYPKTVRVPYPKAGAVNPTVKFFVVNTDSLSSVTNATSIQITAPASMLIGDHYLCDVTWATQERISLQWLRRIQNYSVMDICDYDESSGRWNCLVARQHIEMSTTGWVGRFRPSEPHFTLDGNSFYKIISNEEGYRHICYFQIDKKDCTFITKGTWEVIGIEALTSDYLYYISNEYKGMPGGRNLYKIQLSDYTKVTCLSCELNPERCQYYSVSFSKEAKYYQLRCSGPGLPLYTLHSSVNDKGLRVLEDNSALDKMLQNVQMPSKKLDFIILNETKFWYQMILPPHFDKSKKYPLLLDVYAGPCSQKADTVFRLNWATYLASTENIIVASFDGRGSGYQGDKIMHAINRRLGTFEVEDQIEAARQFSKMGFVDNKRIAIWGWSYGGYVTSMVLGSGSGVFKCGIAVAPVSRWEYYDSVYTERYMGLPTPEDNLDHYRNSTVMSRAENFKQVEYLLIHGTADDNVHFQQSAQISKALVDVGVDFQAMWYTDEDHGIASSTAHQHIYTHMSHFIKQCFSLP

Row | Sequence | blood glucose reduction overall, through 8 hours ([1]; 1 and 3 mg/kg, FIG. 17) | time to inactivation by DPP-IV [2] | blood glucose after 1 hour ([1]; fasted, GLP-1 SgG 1 and 3 mg/kg, GLP-1 peptide 0.8 mg/kg) | blood glucose at 4 and 8 hours post treatment ([1]; GLP-1 SgG 1 and 3 mg/kg, GLP-1 peptide 0.8 mg/kg) | blood glucose at 4 and 8 hours post treatment ([1]; GLP-1 SgG 1 and 3 mg/kg, GLP-1 peptide 0.8 mg/kg, listed as GLP-1 peptide control) | resistance to proteolytic inactivation by DPP-IV [2]
1 | HAEGTFTSDVSSYLEGQAAKEFIAWLVKGRG [GLP-1] | acutely reduces blood glucose through 8 hours | ≤ 2 min | – | – | – | –
2 | HSEGTFTSDVSSYLEGQAAKEFIAWLVKGRG [GLP-1 peptide, GLP-1 receptor agonist with serine for alanine substitution at position 8] | – | – | considerable blood glucose reduction | started to approach levels of control Surrobody | unable to maintain the same degree of blood glucose levels | markedly resistant
